Where a SMILES comes first, the peptide text is derived from it.
Columns and labels:
B. cenocepacia AU0756 = test system: B. cenocepacia AU0756
Experimental: We proceeded to test the antimicrobial activity of the selected variants against two clinical isolates of the Bcc, B. cenocepacia AU0756 and B. cenocepacia AU24362, in broth microdilution assays. […] We revisited these measurements using broth microdilution assays following the Clinical & Laboratory Standards Institute (CLSI) standard.
Broth microdilution assays of the ubonodin variants were conducted using B. cenocepacia AU0756 and B. cenocepacia AU24362 with guidelines provided by the Clinical & Laboratory Standards Institute (CLSI).

E. coli MC1061 = assay: Spot dilution assay of E. coli producing the ubonodin variant from pUboABC; type: cell-based; details: biological duplicates; for Inhibits Growth: variant in pUboABC backbone in E. coli MC1061, induction with 100 μM IPTG, ten-fold serial dilutions
Experimental: Cultures of E. coli MC1061 transformed with the appropriate plasmids were grown. Aliquots of the cultures were sampled prior to and after induction with 100 μM IPTG, and 10-fold serial dilutions were plated. […]
All cloning was conducted by PCR amplification (using Q5 polymerase), restriction digestion, ligation, (using T4 DNA ligase), and transformation into chemically competent E. coli XL1-Blue. All cloning with a pUboABC backbone was done by plating transformation mixt ures onto Lysogeny Broth (LB) plates supplemented with 100 μg/mL ampicillin and 0.2% w/v glucose, and colonies were inoculated into LB media supplemented with 100 μ g/mL ampicillin and 0.2% w/v glucose to suppress any leaky expression. Cloning for all other plasmid constructs was done by plating transformation mixtures onto Lysogeny Broth (LB) plates supplemented with 100 μ g/ m L ampicillin, and colonies were inoculated into LB media supplemented with 100 μ g/ m L ampicillin.
Plasmids were extracted using Qiagen QIAprep Spin Miniprep Kit and sequence verified using Sanger sequencing. All primer sequences are listed in Table S7, and all plasmid constructs are […]
pUboABC was cloned by amplifying pWC99 with pQE-80 NheI For and pAT8 Nco I Rev.
The amplicon was ligated into pWC99 digested with Nhe I and Nco I. pUboBC was cloned by digesting pUboABC with Nh e I and Nco I and ligating that fragment into pQE-80 digested with Nhe I and Nco I. pUboABC S5H I16P and pUboABCD S5H I16P were cloned with overlap PCR using pWC99 as the template. One fragment was amplified with pQE-80 EcoRI For and S5H I16P Rev v2 and the second fragment was amplified with S5H I16P For v2 and pQE-80 HindII I Rev. […]
All remaining plasmid constructs were cloned with overlap PCR. One fragment was amplified with Xho I For Lib and a mutagenic reverse primer and the second fragment was amplified with NheI Rev Lib and a mutagenic forward primer. The templates and mutagenic […]
The fragments were joined with a second round of PCR and amplified with XhoI For Lib and NheI Rev Lib. Amplicons were ligated into the appropriate plasmid backbone digested with Xho I and Nhe I-HF. The plasmid backbones […]
The appropriate plasmid was transformed into electrocompetent E. coli MC1061, plated onto LB plates supplemented with 100 μ g/ m L ampicillin and 0.2% w/v glucose, and incubated at 30 °C for 16 hours. Colonies were inoculated into LB media supplemented with 100 μ g/ m L ampicillin and 0.2% w/v glucose and grown at 37 °C for 16 hours. These cultures were sub-cultured to an OD600 of 0.02 in 50 mL of LB media supplemented with 100 μg/mL ampicillin in a 250 mL flask. Once the OD600 reached 0.3, a 1 mL aliquot was sampled immediately prior to inducing the cultures with 100 μM isopropyl β-D-1-thiogalactopyranoside (IPTG). The aliquot was washed with Phosphate-Buffered Saline (PBS) two times and ten-fold serial dilutions were spotted onto LB plates supplemented with 100 μ g/ m L ampicillin and 0.2% w/v glucose. For each following timepoint, a 1 mL sample of each culture was withdrawn, washed with PBS two times, and ten- […]
fold serial dilutions were spotted onto LB plates supplemented with 100 μ g/m L ampicillin and 0.2% w/v glucose. Plates were incubated for 16 hours at 37 °C before imaging. […]
250 mL flask. Ten-fold serial dilutions of the culture were plated onto LB plates supplemented with 100 μ g/ m L ampicillin and 0.2% w/v glucose. The cultures were then grown at 37 °C, and once the OD600 reached 0.3, a 1 mL sample of the culture was withdrawn immediately before the cultures were induced with 10 μM or 100 μM IPTG and returned to grow longer. […]
All plates were incubated at 37 °C for 16 hours, after which the number of colonies was counted. Three biological replicates of this assay were done.
Co-Culture of E. coli MC1061 pUboABC and E. coli MC1061 pUboBC pUboABC (0.9 ng) and pUboBC (0.1 ng) were transformed into electrocompetent E. coli MC1061 with a one- hour outgrowth at 37 °C in LB media supplemented with 0.2% w/v glucose. […]

[1] = test system: RNA polymerase (RNAP) in E. coli MC1061; assay: High-throughput growth-based screen with NGS (enrichment value) for RNA polymerase inhibition; type: cell-based; parameters: key to Experimental observation (enrichment observed in the screen): Dropout: Many variants inhibit RNAP so strongly that they cannot be detected by NGS after IPTG induction (referred to as dropout variants); details: for Experimental observation (enrichment observed in the screen): Table S4, variants whose MICs were tested; for Enrichment: case.csv of the DeepLasso code, screen stage and IPTG concentration not stated
Experimental: The single mutant library was analyzed by NGS at multiple stages of sample preparation (Figure 2A) to track its evolution throughout the screen. Specifically, the frequency of each possible aa variant was computed at each stage by summing up counts for each distinct translated sequence and dividing by the total number of counts for all variants (eq S1, SI Methods). Since cells expressing an RNAP-inhibiting ubonodin variant will have growth defects relative to cells with a nontoxic variant, RNAP-inhibiting ubonodin variants are expected to decrease in frequency throughout the screen.
First, the naïve library (digested PCR products) was sequenced. These digested PCR products were cloned into the pUboABC backbone and transformed into a recA^– cloning strain. This plasmid library was sequenced again to capture any changes upon transformation of the library into E. coli. The change between the naïve library and the cloning transformation library was minimal (Figure S6A). This plasmid library was transformed into the screening strain MC1061, and the plasmid from resulting colonies was also sequenced. The library in MC1061 was grown up en masse in liquid culture to mid log phase, and a portion of the culture was plated. These colonies were scraped, then the plasmid was isolated and sequenced. Finally, the liquid culture was induced with IPTG, after which a portion of the culture was plated and the plasmid was isolated and sequenced. It is key to note that all samples from liquid cultures were plated prior to sequencing to ensure that only viable cells were sequenced. […] The rationale for sequencing at these five different stages was the possibility that leaky expression of uboA would affect the frequency of active mutants prior to IPTG induction. Indeed, we observed that the frequency of some uboA mutants dropped as soon as they were transformed into the screening strain MC1061 while the frequency of other mutants climbed (Figure 2B).
The behavior of the point variants (i.e., variants with a single aa substitution) was examined by calculating their enrichment values, the base-2 logarithm of the ratio of the variant’s frequency at a specific step of the screen to the variant’s frequency in the cloning transformation library (eq S3, Figure S6). The most relevant enrichment value for ubonodin activity is the comparison between the post-IPTG library and the cloning transformation library (Figure 2A). […] Many variants inhibit RNAP so strongly that they cannot be detected by NGS after IPTG induction (referred to as dropout variants). […] Variants with a stop codon mutation and variants containing an aa substitution at Tyr9 or Tyr27 (positions conserved in MccJ25 and shown to be crucial for RNAP inhibition, see Figure S7)[26] have positive enrichment values (1.2–1.7), serving as quality control for the screen (Figure 3A). Strikingly, 63% of point variants decreased in frequency, indicating a high tolerance to aa substitution. […] The positions with active variants are Asn11 through Ser24 in the loop and Asp3, Ser5, and Ala7 in the ring.
The single mutant and double mutant libraries were transformed into E. coli MC1061. Colonies were resuspended in media and subcultured into a larger culture. Aliquots of the cultures were sampled prior to and after induction with 10 μM IPTG and 100 μM IPTG and plated. After 16 h of incubation, the colonies were resuspended in media and plasmids were miniprepped.
Samples were PCR amplified with barcoded primers and combined such that double mutant library samples were over-represented compared to single mutant library samples to provide sufficient coverage of the larger double mutant library. Samples were sequenced using an Illumina MiSeq Micro 300nt and an Illumina NovaSeq 6000 Sequencing System. Downstream analysis of the data was conducted with Python, MATLAB, and R.
V to reduce genomic DNA contamination. One fragment was amplified with Xho I For Lib and a […]

Compound | B. cenocepacia AU0756 MIC (B. cenocepacia AU0756) [µM] | Time after induction at which the toxic effect was observed (E. coli MC1061; pUboABC backbone) [h] | Inhibits Growth (E. coli MC1061) | Experimental observation (enrichment observed in the screen) [1] | Enrichment [1]
CC[C@H](C)[C@@H]1NC(=O)[C@H](CO)NC(=O)CNC(=O)[C@H](CC(=O)O)NC(=O)CNC(=O)CNC(=O)CC[C@@H](C(=O)N[C@@H](Cc2ccc(O)cc2)C(=O)N[C@@H](Cc2ccccc2)C(=O)N[C@@H](CCSC)C(=O)N[C@@H](CCCNC(=N)N)C(=O)N2CCC[C@H]2C(=O)N[C@@H](CCSC)C(=O)N[C@@H](Cc2c[nH]cn2)C(=O)N[C@H](C(=O)N[C@@H](Cc2c[nH]cn2)C(=O)N[C@@H](CC(=O)O)C(=O)N[C@@H](Cc2c[nH]c3ccccc23)C(=O)N[C@@H](CCC(N)=O)C(=O)N[C@H](C(=O)N[C@@H](CCSC)C(=O)N[C@@H](CC(=O)O)C(=O)N[C@@H](CO)C(=O)NCC(=O)N[C@@H](Cc2ccc(O)cc2)C(=O)N[C@@H](Cc2ccc(O)cc2)C(=O)NCC(=O)O)[C@@H](C)CC)[C@@H](C)CC)NC(=O)CNC1=O [A7G N11M] (HELM PEPTIDE1{G.G.D.G.S.I.G.E.Y.F.M.R.P.M.H.I.H.D.W.Q.I.M.D.S.G.Y.Y.G}$PEPTIDE1,PEPTIDE1,1:R1-8:R3$$$V2.0) | >8 | 6 | Yes | Dropout | 
CC[C@H](C)[C@H](NC(=O)[C@H](CCC(N)=O)NC(=O)[C@H](Cc1c[nH]c2ccccc12)NC(=O)[C@H](CC(=O)O)NC(=O)[C@H](Cc1c[nH]cn1)NC(=O)[C@H](C)NC(=O)[C@H](Cc1c[nH]cn1)NC(=O)[C@H](CCSC)NC(=O)[C@@H]1CCCN1C(=O)[C@H](CCCNC(=N)N)NC(=O)[C@H](CC(N)=O)NC(=O)[C@H](Cc1ccccc1)NC(=O)[C@H](Cc1ccc(O)cc1)NC(=O)[C@@H]1CCC(=O)NCC(=O)NCC(=O)N[C@@H](CC(=O)O)C(=O)NCC(=O)N[C@@H](CO)C(=O)N[C@@H]([C@@H](C)CC)C(=O)N2CCC[C@H]2C(=O)N1)C(=O)N[C@@H](CCSC)C(=O)N[C@@H](CC(=O)O)C(=O)N[C@@H](CO)C(=O)NCC(=O)N[C@@H](Cc1ccc(O)cc1)C(=O)N[C@@H](Cc1ccc(O)cc1)C(=O)NCC(=O)O [A7P I16A] (HELM PEPTIDE1{G.G.D.G.S.I.P.E.Y.F.N.R.P.M.H.A.H.D.W.Q.I.M.D.S.G.Y.Y.G}$PEPTIDE1,PEPTIDE1,1:R1-8:R3$$$V2.0) | 4 to 8 |  | Yes | Dropout | 
CC[C@H](C)[C@H](NC(=O)[C@H](CCC(N)=O)NC(=O)[C@H](Cc1c[nH]c2ccccc12)NC(=O)[C@H](CC(=O)O)NC(=O)[C@H](Cc1c[nH]cn1)NC(=O)[C@@H](NC(=O)[C@H](Cc1c[nH]cn1)NC(=O)[C@H](CCSC)NC(=O)[C@@H]1CCCN1C(=O)[C@H](CCCNC(=N)N)NC(=O)[C@H](CC(N)=O)NC(=O)[C@H](Cc1ccccc1)NC(=O)[C@H](Cc1ccc(O)cc1)NC(=O)[C@@H]1CCC(=O)NCC(=O)NCC(=O)N[C@@H](CC(=O)O)C(=O)NCC(=O)N[C@@H](CO)C(=O)N[C@@H]([C@@H](C)CC)C(=O)N2CCC[C@H]2C(=O)N1)[C@@H](C)CC)C(=O)N[C@@H](CCSC)C(=O)N[C@@H](CC(=O)O)C(=O)N[C@@H](CO)C(=O)NCC(=O)N[C@@H](Cc1ccc(O)cc1)C(=O)N[C@@H](Cc1ccc(O)cc1)C(=O)NCC(=O)O [A7P] (HELM PEPTIDE1{G.G.D.G.S.I.P.E.Y.F.N.R.P.M.H.I.H.D.W.Q.I.M.D.S.G.Y.Y.G}$PEPTIDE1,PEPTIDE1,1:R1-8:R3$$$V2.0; C-terminus assumed) | 2 |  | Yes | -3.4 | 
GGDGSI*EYFNRPMVIHDWQIMDSGMYG |  |  |  |  | 4.338
GGDGSIAEYFNRPMHIHEWQIM*SGYYG |  |  |  |  | 4.458
